Literature values as cited in publication PMC4585333, “Novel Regulator of Acylated Ghrelin, CF801, Reduces Weight Gain, Rebound Feeding after a Fast, and Adiposity in Mice” (Frontiers in Endocrinology, 2015).

Key:
[1] = cited from earlier work
Source text: One potential target for the control of body weight and appetite is the gut–brain peptide ghrelin. Ghrelin, a 28-amino-acid peptide produced in the X/A-like cells of the gastric oxyntic mucosa lining the stomach, is a key regulator of both short- and long-term energy homeostasis ([1]–[3]). Circulating ghrelin levels rise in anticipation of a meal and subside once the organism is satiated ([4]–[7]).

[2] = effects appear similar to those of CF801; ref [74], [75]; cited from earlier work
Procedure: Given the high amino acid similarity between CF801 and desacyl ghrelin, it is possible that CF801 acts like an analog of desacyl ghrelin. […] Alternatively, CF801 may reduce acylated ghrelin simply by reducing GOAT mRNA, and thus acyl ghrelin levels, without altering GOAT activity at least in the way that this is tested in vitro. While the mechanisms underlying these ef ...

GOAT = conditions: microsomal assay; ref [56]; cited from earlier work
Source text: An approach was undertaken to design a novel GOAT inhibitor, resulting in a compound we named CF801. The first five amino acids of CF801 derive from studies carried out in 2008 by Yang et al., who examined the inhibitory effect of certain pentapeptides (e.g., GSAFL-NH2) on GOAT using a microsomal assay ([56]). […] In synthesizing CF801, we extended and modified the original GSAFL-NH2 ...

ghrelin
feeding after injection ([1]; injections of ghrelin, ref [35]–[37]): vigorous feeding bouts | respiratory exchange ratio (RER) ([1]; mice receiving daily injections of ghrelin, ref [3]): increases in RER

desacyl ghrelin
weight gain, ghrelin secretion and adipose tissue accumulation [2]: decrease in weight gain, ghrelin secretion, and adipose tissue accumulation

GSAFL-NH2
inhibitory activity on GOAT (GOAT): showed inhibitory activity on GOAT
